Data published in patent US20060019885A1, “Modified bryodin 1 with reduced immunogenicity” (priority 2002, published 2006).

System: peripheral blood mononuclear cells (PBMCs), containing antigen presenting cells (APCs) and T-cells
Experiment: naïve human T-cell proliferation assay (3H-thymidine incorporation, stimulation index)
Format: cell-based
Conditions: for predicted ranking of the most immunodominant regions: from numbers of responding naïve donors and crystallographic B-factor analysis; for number of donor samples reactive / percent of donor samples reactive: of 21 naïve donor PBMC samples, positive response SI>2
Source text: This approach has proven to be a particularly effective method and is disclosed herein as an embodiment of the invention. The method can be applied to test part of the sequence, for example a sub-set of bryodin 1 peptides such as all or some of those listed in FIG. 1; or the method may be applied to test entire sequence. In the present studies, the method has involved the testing of overlapping bryodin 1 derived peptide sequences in a scheme so as to scan and test the entire bryodin 1 sequence (including peptides representing the N-terminal pro-pepeptide). The synthetic peptides are tested for their ability to evoke a proliferative response in human T-cell cultured in vitro. Where this type of approach is conducted using naïve human T-cells taken from healthy donors, the inventors have established that in the operation of such an assay, a stimulation index equal to or greater than 2.0 is a useful measure of induced proliferation. The stimulation index is conventionally derived by division of the proliferation score (e.g. counts per minute of radioactivity if using ^3H-thymidine incorporation) measured to the test peptide by the score measured in cells not contacted with a test peptide.
The interaction between MHC, peptide and T-cell receptor (TCR) provides the structural basis for the antigen specificity of T-cell recognition. T-cell proliferation assays test the binding of peptides to MHC and the recognition of MHC/peptide complexes by the TCR. In vitro T-cell proliferation assays of the present example, involve the stimulation of peripheral blood mononuclear cells (PBMCs), containing antigen presenting cells (APCs) and T-cells. Stimulation is conducted in vitro using synthetic peptide antigens, and in some experiments whole protein antigen. Stimulated T-cell proliferation is measured using ^3H-thymidine (^3H-Thy) and the presence of incorporated ^3H-Thy assessed using scintillation counting of washed fixed cells.
Buffy coats from human blood stored for less than 12 hours were obtained from the National Blood Service (Addenbrooks Hospital, Cambridge, UK). Ficoll-paque was obtained from Amersham Pharmacia Biotech (Amersham, UK). Serum free AIM V media for the culture of primary human lymphocytes and containing L-glutamine, 50 μg/ml streptomycin, 10 μg/ml gentomycin and 0.1% human serum albumin was from Gibco-BRL (Paisley, UK). Synthetic peptides were obtained from Eurosequence (Groningen, The Netherlands) and Babraham Technix (Cambridge, UK).
Erythrocytes and leukocytes were separated from plasma and platelets by gentle centrifugation of buffy coats. The top phase (containing plasma and platelets) was removed and discarded. Erythrocytes and leukocytes were diluted 1:1 in phosphate buffered saline (PBS) before layering onto 15 ml ficoll-paque (Amersham Pharmacia, Amersham UK). Centrifugation was done according to the manufacturers recommended conditions and PBMCs were harvested from the serum+PBS/ficoll paque interface. PBMCs were mixed with PBS (1:1) and collected by centrifugation. The supernatant was removed and discarded and the PBMC pellet resuspended in 50 ml PBS. Cells were again pelleted by centrifugation and the PBS supernatant discarded. Cells were resuspended using 50 ml AIM V media and at this point counted and viability assessed using trypan blue dye exclusion. Cells were again collected by centrifugation and the supernatant discarded. Cells were resuspended for cryogenic storage at a density of 3×10^7 per ml. The storage medium was 90% (v/v) heat inactivated AB human serum (Sigma, Poole, UK) and 10% (v/v) DMSO (Sigma, Poole, UK). Cells were transferred to a regulated freezing container (Sigma) and placed at −70° C. overnight. When required for use, cells were thawed rapidly in a water bath at 37° C. before transferring to 10 ml pre-warmed AIM V medium.
PBMC were stimulated with protein and peptide antigens in a 96 well flat bottom plate at a density of 2×10^5 PBMC per well. […]

Sequence	predicted ranking of the most immunodominant regions	number of donor samples reactive [donor samples]	percent of donor samples reactive
ATEAAKFVFKDAKKK [R2]	relatively less immunogenic	3	14%
ATISLENNWSALSKQIQIAST [R5]	most immunogenic	4	19%
ERLQTAAGKIRENIPLGLPALDSA [R3]	–	3	14%
ITTLYYYTASSAASALLVLIQSTAESA [R4]	–	5	24%
RYTLLHLTNYADETISVAVDV [R1]	most immunogenic	6	over 28%
